Laboratory results as given in the NIST ThermoML archive (doi:10.1021/je049672l).

Conditions: for mass density: Vibrating tube method; for vapor or sublimation pressure: Closed cell (Static) method

CCC [propane]
Fluid (supercritical or subcritical phases)
Conditions | mass density [kg/m3]
240 K, 527.3 kPa | 570.78
240 K, 1044.8 kPa | 571.46
240 K, 1522.4 kPa | 572.08
240 K, 1978.3 kPa | 572.68
240 K, 2477.9 kPa | 573.32
240 K, 2999.9 kPa | 573.98
240 K, 3513 kPa | 574.62
240 K, 4045.7 kPa | 575.29
240 K, 4504.5 kPa | 575.85
240 K, 4957.8 kPa | 576.41
240 K, 5475.7 kPa | 577.04
240 K, 6018.3 kPa | 577.69
240 K, 6523.2 kPa | 578.3
240 K, 7043.3 kPa | 578.91
250 K, 513.8 kPa | 558.73
250 K, 1008.1 kPa | 559.47
250 K, 1508.3 kPa | 560.2
250 K, 2008.3 kPa | 560.93
250 K, 2524.1 kPa | 561.67
250 K, 3016.9 kPa | 562.38
250 K, 3503.7 kPa | 563.05
250 K, 3993.1 kPa | 563.74
250 K, 4478.5 kPa | 564.4
250 K, 5045.1 kPa | 565.17
250 K, 5495.4 kPa | 565.78
250 K, 5999.9 kPa | 566.46
250 K, 6543.5 kPa | 567.17
250 K, 7010.3 kPa | 567.78
260 K, 506.6 kPa | 546.1
260 K, 1013.8 kPa | 546.96
260 K, 1503.5 kPa | 547.77
260 K, 1999.7 kPa | 548.6
260 K, 2504.5 kPa | 549.42
260 K, 3012.1 kPa | 550.24
260 K, 3513.3 kPa | 551.04
260 K, 4020 kPa | 551.84
260 K, 4498.9 kPa | 552.58
260 K, 5014.5 kPa | 553.38
260 K, 5513.9 kPa | 554.12
260 K, 6028.2 kPa | 554.89
260 K, 6522.8 kPa | 555.62
260 K, 7048.9 kPa | 556.4
270 K, 504.7 kPa | 532.93
270 K, 1012.9 kPa | 533.91
270 K, 1510.4 kPa | 534.87
270 K, 2005.4 kPa | 535.83
270 K, 2499.6 kPa | 536.75
270 K, 3017.5 kPa | 537.7
270 K, 3497.1 kPa | 538.57
270 K, 4018.8 kPa | 539.5
270 K, 4488.2 kPa | 540.32
270 K, 5023.8 kPa | 541.26
270 K, 5504.7 kPa | 542.05
270 K, 6021.1 kPa | 542.91
270 K, 6525.8 kPa | 543.74
270 K, 7024.1 kPa | 544.55
280 K, 1000 kPa | 520.1
280 K, 1466.1 kPa | 521.15
280 K, 1964.2 kPa | 522.28
280 K, 2513 kPa | 523.49
280 K, 3032.9 kPa | 524.61
280 K, 3519.3 kPa | 525.6
280 K, 4049.7 kPa | 526.68
280 K, 4527.5 kPa | 527.65
280 K, 4963.1 kPa | 528.5
280 K, 5443.4 kPa | 529.45
280 K, 5982.8 kPa | 530.51
280 K, 6522.6 kPa | 531.56
280 K, 7034.7 kPa | 532.51
290 K, 1499.4 kPa | 506.71
290 K, 2004.4 kPa | 508.04
290 K, 2510 kPa | 509.33
290 K, 2998.9 kPa | 510.56
290 K, 3484 kPa | 511.74
290 K, 4018.1 kPa | 513.03
290 K, 4476.9 kPa | 514.12
290 K, 5036.3 kPa | 515.41
290 K, 5531.4 kPa | 516.52
290 K, 5957.4 kPa | 517.46
290 K, 6525.4 kPa | 518.7
290 K, 7049.2 kPa | 519.81
300 K, 1517.7 kPa | 491.19
300 K, 2015.2 kPa | 492.77
300 K, 2519.2 kPa | 494.32
300 K, 3032.3 kPa | 495.86
300 K, 3486.3 kPa | 497.18
300 K, 4036.8 kPa | 498.73
300 K, 4462.1 kPa | 499.91
300 K, 4937 kPa | 501.23
300 K, 5518.9 kPa | 502.75
300 K, 6063.5 kPa | 504.2
300 K, 6496.7 kPa | 505.29
300 K, 7004.4 kPa | 506.54
310 K, 1514.4 kPa | 473.96
310 K, 2018.8 kPa | 475.98
310 K, 2491.2 kPa | 477.78
310 K, 3012.9 kPa | 479.7
310 K, 3515 kPa | 481.48
310 K, 4040.6 kPa | 483.29
310 K, 4528.9 kPa | 484.91
310 K, 5029.4 kPa | 486.52
310 K, 5529.3 kPa | 488.08
310 K, 6046.3 kPa | 489.64
310 K, 6510.1 kPa | 491.02
310 K, 6991.8 kPa | 492.41
320 K, 2011.4 kPa | 457.17
320 K, 2513.8 kPa | 459.66
320 K, 3002.1 kPa | 461.96
320 K, 3495.1 kPa | 464.17
320 K, 4025.8 kPa | 466.44
320 K, 4519.6 kPa | 468.46
320 K, 5017.9 kPa | 470.44
320 K, 5536.8 kPa | 472.4
320 K, 6024.8 kPa | 474.19
320 K, 6523.4 kPa | 475.95
320 K, 7008.9 kPa | 477.63
330 K, 2033.9 kPa | 435.23
330 K, 2537.4 kPa | 438.74
330 K, 3032 kPa | 441.91
330 K, 3546.3 kPa | 445
330 K, 3909.1 kPa | 447.05
330 K, 3995.4 kPa | 447.53
330 K, 4495.8 kPa | 450.17
330 K, 4996.1 kPa | 452.66
330 K, 5488.6 kPa | 455.01
330 K, 6010.6 kPa | 457.38
330 K, 6499.8 kPa | 459.5
330 K, 6985.1 kPa | 461.52
340 K, 3024.2 kPa | 417.87
340 K, 3507.8 kPa | 422.07
340 K, 4014 kPa | 426.05
340 K, 4501.8 kPa | 429.56
340 K, 5027.1 kPa | 433.06
340 K, 5516.7 kPa | 436.1
340 K, 5985 kPa | 438.83
340 K, 6494.7 kPa | 441.64
340 K, 6964.1 kPa | 444.1
350 K, 3541.2 kPa | 393.49
350 K, 4011.9 kPa | 399.51
350 K, 4505.9 kPa | 404.94
350 K, 5024.8 kPa | 409.94
350 K, 5521.6 kPa | 414.24
350 K, 6027.1 kPa | 418.22
350 K, 6491.4 kPa | 421.59
350 K, 6978.1 kPa | 424.88
360 K, 4043.5 kPa | 362.08
360 K, 4527.8 kPa | 372.52
360 K, 5043 kPa | 380.99
360 K, 5524.7 kPa | 387.51
360 K, 6048.5 kPa | 393.63
360 K, 6529.9 kPa | 398.56
360 K, 6953.8 kPa | 402.5
370 K, 779.8 kPa | 11.91
370 K, 1089.1 kPa | 17.21
370 K, 1515.9 kPa | 25.15
370 K, 2081.6 kPa | 37.08
370 K, 2783.7 kPa | 55.36
370 K, 4325.4 kPa | 287.46
370 K, 4521.7 kPa | 312.65
370 K, 4996.9 kPa | 336.94
370 K, 5527.4 kPa | 352.01
370 K, 5998 kPa | 361.65
370 K, 6504.8 kPa | 369.98
370 K, 7066.4 kPa | 377.66
380 K, 813.8 kPa | 12.27
380 K, 1223.8 kPa | 19.12
380 K, 1564.3 kPa | 25.22
380 K, 2032 kPa | 34.39
380 K, 2630.4 kPa | 47.9
380 K, 3340.1 kPa | 67.96
380 K, 4059 kPa | 97.16
380 K, 4059.9 kPa | 97.18
380 K, 4060.6 kPa | 97.22
380 K, 4556.5 kPa | 131.82
380 K, 5335.4 kPa | 273.87
380 K, 5530.3 kPa | 291.64
380 K, 6044.5 kPa | 318.37
380 K, 6541.5 kPa | 333.99
380 K, 7012.1 kPa | 344.89

Liquid
Conditions | mass density [kg/m3] | vapor or sublimation pressure [kPa]
240 K | 570.28 | 147.9
250 K | 558.29 | 217.7
260 K | 545.77 | 310.3
270 K | 532.67 | 429.6
290 K | 504.75 | 768.6
300 K | 489.48 | 997.6
310 K | 472.96 | 1272.1
320 K | 455 | 1600.7
330 K | 434.9 | 1988.8
340 K | 411.92 | 2429.7
350 K | 384.39 | 2948
360 K | 347.97 | 3552.2
